Experiments:
[1] = tested on: rat air pouch model of crystal-induced arthropathy (MSU); test: Rat air pouch model, Example 5 (Compound 2 in combination with colchicine); assay type: in vivo
Method: Sodium hydroxide (40 g, Fisher Scientific) was dissolved in de-ionized water (100 mL, dH2O) to provide a 10N solution. Uric acid (16 g, Sigma) was added to de-ionized water (3400 mL) containing sodium hydroxide solution (11.8 mL, 10N) and heated to 60° C. with constant stirring. […] The resulting clear solution was cooled to 4-8° C., resulting in the formation of crystals, which were isolated by filtration, washed three times with de-ionized wa[…]) and dried at 37° C. The dried mono sodium urate crystals were sifted into an air-tight container for storage. […] Methylcellulose (0.4 g, Sigma) was dissolved in de-ionized water (100 mL) to provide a 0.4% solution used as vehicle. […] Test compounds were suspended in vehicle to provide the desired concentrations, and diluted accordingly. […] Male Sprague-Dawley rats (Charles River Laboratories, 160-180 g) were received, individually examined and housed in cages of five rats each. The animals were in apparent good health with no clinical signs of disease or distress. The rats were placed in quarantine with daily inspections, ear notched for identification purposes and shaved at the nape of the neck. The rats were anesthetized (isoflurane), and the nape of the neck was cleansed with 70% isopropanol (Butler Animal Health Supply) followed by povidone-iodine solution (Ricca Chemical Co.). Sterile air (30 mL, 0.2 μm, Millipore) was injected subcutaneously using a 23 G×11⁄2 inch needle fixed to a 30 mL syringe. The rats were returned to routine housing with no adverse reactions observed. The rats were anesthetized (isoflurane), and the nape of the neck was cleansed with 70% isopropanol (Butler Animal Health Supply) followed by povidone-iodine solution (Ricca Chemical Co.). Sterile air (15 mL, 0.11 μm, Millipore) was injected subcutaneously using a 23 G×11⁄2 inch needle fixed to a 20 mL syringe. The rats were returned to routine housing with no adverse reactions observed. The rats were weighed and sorted into treatment groups based on average body weight. As appropriate, the rats were dosed orally with test compound or vehicle (saline alone). […] Thirty minutes after SC injection or two hours after PO dosing, MSU (15 mL) was injected into the air pouch using an 18 G×2 inch needle fitted to a 20 mL syringe. Control group was injected with 15 mL sterile saline (vehicle). The injection sites were closed (collodion, Macron) and the rats returned to their cages with no adverse effects observed. Four hours after MSU/saline injection, the rats were anesthetized and heparinized saline (5 mL, 10 U/mL) was injected into the air pouch. […] An aliquot of the exudate was transferred to green Eppendorf tubes for total white blood cell (WBC) measurement. After allowing the MSU crystals to settle out for ten minutes, an aliquot of the exudate was transferred to heparinized microtainer tubes (Becton Dickinson) for differential white blood cell counts. The remainder of the exudate was centrifuged and an aliquot of the supernatants was dispensed to labeled clear Eppendorf tubes and stored at -80° C. The rats were exsanguinated into pre-chilled serum separator tubes, processed to serum, and 0.5 mL aliquot was stored at -80° C. in labeled Eppendorf tubes. […] 90 rats were used, divided into 9 groups of 10 animals, as follows: [table]

[2] = tested on: rat air pouch model of crystal-induced arthropathy (MSU); test: Rat air pouch therapeutic model, Example 10 (Compounds 3 and 4 in combination with colchicine); assay type: in vivo
Method: Sodium hydroxide (40 g, Fisher Scientific) was dissolved in de-ionized water (100 mL, dH2O) to provide a 10N solution. Uric acid (16 g, Sigma) was added to de-ionized water (3400 mL) containing sodium hydroxide solution (11.8 mL, 10N) and heated to 60° C. with constant stirring. […] The resulting clear solution was cooled to 4-8° C., resulting in the formation of crystals, which were isolated by filtration, washed three times with de-ionized wa[…]) and dried at 37° C. The dried mono sodium urate crystals were sifted into an air-tight container for storage. […] Methylcellulose (0.4 g, Sigma) was dissolved in de-ionized water (100 mL) to provide a 0.4% solution used as vehicle. […] Test compounds were suspended in vehicle to provide the desired concentrations, and diluted accordingly. […] The animals were in apparent good health with no clinical signs of disease or distress. The rats were placed in quarantine with daily inspections, ear notched for identification purposes and shaved at the nape of the neck. The rats were anesthetized (isoflurane), and the nape of the neck was cleansed with 70% isopropanol (Butler Animal Health Supply) followed by povidone-iodine solution (Ricca Chemical Co.). Sterile air (30 mL, 0.2 μm, Millipore) was injected subcutaneously using a 23 G×11⁄2 inch needle fixed to a 30 mL syringe. The rats were returned to routine housing with no adverse reactions observed. The rats were anesthetized (isoflurane), and the nape of the neck was cleansed with 70% isopropanol (Butler Animal Health Supply) followed by povidone-iodine solution (Ricca Chemical Co.). Sterile air (15 mL, 0.11 μm, Millipore) was injected subcutaneously using a 23 G×11⁄2 inch needle fixed to a 20 mL syringe. The rats were returned to routine housing with no adverse reactions observed. The rats were weighed and sorted into treatment groups based on average body weight. As appropriate, the rats were dosed orally with test compound or vehicle (saline alone). […] Control group was injected with 15 mL sterile saline (vehicle). The injection sites were closed (collodion, Macron) and the rats returned to their cages with no adverse effects observed. Four hours after MSU/saline injection, the rats were anesthetized and heparinized saline (5 mL, 10 U/mL) was injected into the air pouch. […] An aliquot of the exudate was transferred to green Eppendorf tubes for total white blood cell (WBC) measurement. After allowing the MSU crystals to settle out for ten minutes, an aliquot of the exudate was transferred to heparinized microtainer tubes (Becton Dickinson) for differential white blood cell counts. The remainder of the exudate was centrifuged and an aliquot of the supernatants was dispensed to labeled clear Eppendorf tubes and stored at -80° C. The rats were exsanguinated into pre-chilled serum separator tubes, processed to serum, and 0.5 mL aliquot was stored at -80° C. in labeled Eppendorf tubes. […] 140 rats were used, divided into 14 groups of 10 animals, as follows: [table]

[3] = 0.3 umol/kg PO + Colchicine 0.001 mpk SC, Group 6
[4] = 0.3 umol/kg PO + Colchicine 0.1 mpk SC, Group 8
[5] = 3.0 umol/kg PO + Colchicine 0.001 mpk SC, Group 7
[6] = 3.0 umol/kg PO + Colchicine 0.1 mpk SC, Group 9
[7] = 10 μmol/kg PO + Colchicine 0.3 mg/kg SC, Groups 9, 14

Q: Which results are given for COc1cc2c(c(OC)c1OC)-c1ccc(OC)c(=O)cc1[C@@H](NC(C)=O)CC2 [Colchicine, COLCHICINE, reference compound]?
A: Avg Exudate Vol ([1]; 0.1 mpk (PO), Group 3): 9.7 mL; Avg Total WBC ([1]; 0.1 mpk (PO), Group 3): 221 ×10^6; Neutrophils ([1]; 0.1 mpk (PO), Group 3): 163 ×10^6; Avg Exudate Vol ([2]; 0.3 mpk SC, Group 3): 11.7 mL; Avg Tot WBC ([2]; 0.3 mpk SC, Group 3): 180 ×10^6; Neutrophils ([2]; 0.3 mpk SC, Group 3): 71.5 ×10^6; Avg Exudate Vol ([2]; 0.5 mpk SC, Group 4): 8.9 mL; Avg Tot WBC ([2]; 0.5 mpk SC, Group 4): 35 ×10^6; Neutrophils ([2]; 0.5 mpk SC, Group 4): 70.7 ×10^6; Avg Exudate Vol ([2]; 1.0 mpk SC, Group 5): 7.3 mL; Avg Tot WBC ([2]; 1.0 mpk SC, Group 5): 9.8 ×10^6; Neutrophils ([2]; 1.0 mpk SC, Group 5): 25.9 ×10^6

Q: How did the “Avg Exudate Vol” value [1, 3] turn out when CC[C@@H](Nc1c(Nc2cccc(C(=O)N(C)C)c2O)c(=O)c1=O)c1ccc(C)o1 [Compound 2, (R)-2-hydroxy-N,N-dimethyl-3-((2-((1-(5-methylfuran-2-yl)propyl)amino)-3,4-dioxocyclobut-1-en-1-yl)amino)benzamide] was run?
A: Its value is 9.6 mL.

Q: And the “Avg Total WBC” value [1, 3]?
A: The value was 337 ×10^6.

Q: What about the Neutrophils [1, 3] of the same molecule?
A: The Neutrophils was 246 ×10^6.

Q: What about the “Avg Exudate Vol” value [1, 4] of the same molecule?
A: Its value is 7.9 mL.

Q: And the “Avg Total WBC” value [1, 4]?
A: Its value is 153 ×10^6.

Q: And the Neutrophils [1, 4]?
A: The Neutrophils was 123 ×10^6.

Q: What about the “Avg Exudate Vol” value ([1]; 0.3 umol/kg PO, Group 4) of the same molecule?
A: The value was 9.8 mL.

Q: What about the “Avg Total WBC” value ([1]; 0.3 umol/kg PO, Group 4) of the same molecule?
A: The value was 365 ×10^6.

Q: And the Neutrophils ([1]; 0.3 umol/kg PO, Group 4)?
A: Its Neutrophils is 268 ×10^6.

Q: And the “Avg Exudate Vol” value [1, 5]?
A: Its value is 8 mL.

Q: And the “Avg Total WBC” value [1, 5]?
A: Its value is 88 ×10^6.

Q: And the Neutrophils [1, 5]?
A: The Neutrophils was 26.7 ×10^6.

Q: And the “Avg Exudate Vol” value [1, 6]?
A: Its value is 7.5 mL.

Q: And the “Avg Total WBC” value [1, 6]?
A: The value was 76.8 ×10^6.

Q: And the Neutrophils [1, 6]?
A: Its Neutrophils is 27.2 ×10^6.

Q: What about the “Avg Exudate Vol” value ([1]; 3.0 umol/kg PO, Group 5) of the same molecule?
A: Its value is 7.0 mL.

Q: What about the “Avg Total WBC” value ([1]; 3.0 umol/kg PO, Group 5) of the same molecule?
A: The value was 78.6 ×10^6.

Q: What about the Neutrophils ([1]; 3.0 umol/kg PO, Group 5) of the same molecule?
A: Its Neutrophils is 16 ×10^6.

Q: With C[C@@H](Oc1cc(NS(=O)(=O)N2CCC2)nc(SCc2cccc(F)c2F)n1)[C@@H](O)CO [Compound 3, N-(2-((2,3-difluorobenzyl)thio)-6-(((2R,3S)-3,4-dihydroxybutan-2-yl)oxy)pyrimidin-4-yl)azetidine-1-sulfonamide] as the molecule, how does the “Avg Exudate Vol” value ([2]; 3 μmol/kg PO, Group 10) read?
A: Its value is 11.5 mL.

Q: And the “Avg Tot WBC” value ([2]; 3 μmol/kg PO, Group 10)?
A: The value was 120 ×10^6.

Q: And the Neutrophils ([2]; 3 μmol/kg PO, Group 10)?
A: The Neutrophils was 71.1 ×10^6.

Q: What about the “Avg Exudate Vol” value [2, 7] of the same molecule?
A: The value was 9.5 mL.

Q: What about the “Avg Tot WBC” value [2, 7] of the same molecule?
A: Its value is 68 ×10^6.

Q: And the Neutrophils [2, 7]?
A: Its Neutrophils is 72.6 ×10^6.

Q: And the “Avg Exudate Vol” value ([2]; 10 μmol/kg PO, Groups 6, 11)?
A: Its value is 10.0 mL.

Q: And the “Avg Tot WBC” value ([2]; 10 μmol/kg PO, Groups 6, 11)?
A: The value was 84 ×10^6.

Q: And the Neutrophils ([2]; 10 μmol/kg PO, Groups 6, 11)?
A: The Neutrophils was 69.2 ×10^6.

Q: And the “Avg Exudate Vol” value ([2]; 30 μmol/kg PO, Groups 7, 12)?
A: Its value is 8.8 mL.

Q: What about the “Avg Tot WBC” value ([2]; 30 μmol/kg PO, Groups 7, 12) of the same molecule?
A: Its value is 59 ×10^6.

Q: And the Neutrophils ([2]; 30 μmol/kg PO, Groups 7, 12)?
A: Its Neutrophils is 30.7 ×10^6.

Q: And the “Avg Exudate Vol” value ([2]; 100 μmol/kg PO, Groups 8, 13)?
A: Its value is 6.9 mL.

Q: What about the “Avg Tot WBC” value ([2]; 100 μmol/kg PO, Groups 8, 13) of the same molecule?
A: The value was 40 ×10^6.

Q: What about the Neutrophils ([2]; 100 μmol/kg PO, Groups 8, 13) of the same molecule?
A: The Neutrophils was 35.1 ×10^6.

Q: Which results are given for CC1CN(S(=O)(=O)Nc2cc(O[C@H](C)[C@@H](O)CO)nc(SCc3ccc(F)cc3)n2)C1 [Compound 4, N-(6-(((2R,3S)-3,4-dihydroxybutan-2-yl)oxy)-2-((4-fluorobenzyl)thio)pyrimidin-4-yl)-3-methylazetidine-1-sulfonamide]?
A: Avg Exudate Vol [2, 7]: 7.6 mL; Avg Tot WBC [2, 7]: 46 ×10^6; Neutrophils [2, 7]: 61.5 ×10^6; Avg Exudate Vol ([2]; 10 μmol/kg PO, Groups 6, 11): 11.5 mL; Avg Tot WBC ([2]; 10 μmol/kg PO, Groups 6, 11): 130 ×10^6; Neutrophils ([2]; 10 μmol/kg PO, Groups 6, 11): 68.4 ×10^6; Avg Exudate Vol ([2]; 30 μmol/kg PO, Groups 7, 12): 8.2 mL; Avg Tot WBC ([2]; 30 μmol/kg PO, Groups 7, 12): 25 ×10^6; Neutrophils ([2]; 30 μmol/kg PO, Groups 7, 12): 60.4 ×10^6; Avg Exudate Vol ([2]; 100 μmol/kg PO, Groups 8, 13): 7.0 mL; Avg Tot WBC ([2]; 100 μmol/kg PO, Groups 8, 13): 18 ×10^6; Neutrophils ([2]; 100 μmol/kg PO, Groups 8, 13): 26.2 ×10^6

Source: patent US10772886B2, “CXCR-2 inhibitors for treating crystal arthropathy disorders” (ARDEA BIOSCIENCES, INC., priority 2016, dated 2020)
